Reference: ChEMBL document CHEMBL2203118, “Ethyl 2,4,6-trihydroxybenzoate is an agonistic ligand for liver X receptor that induces cholesterol efflux from macrophages without affecting lipid accumulation in HepG2 cells” (Bioorg Med Chem Lett, 2012)
Activity calls are given as the source filed them. The calls are words filed in the database; no cut-off is given here.

Columns and labels:
[1] = target: T1, Liver X receptor (Homo sapiens) (UniProt Q13133+P55055); assay: Agonist activity at LXR in human THP1 cells assessed as induction of ABCG1 gene expression after 48 hrs by qPCR analysis; assay type: functional, cell-based; settings: THP-1
[2] = target: T1, Liver X receptor (Homo sapiens); assay: Agonist activity at LXR in human THP1 cells assessed as induction of ABCA1 gene expression after 48 hrs by qPCR analysis; assay type: functional, cell-based; settings: THP-1
[3] = target: T2, Oxysterols receptor LXR-alpha (Homo sapiens) (UniProt Q13133); assay: Agonist activity at LXR-alpha in human Caco2 cells assessed as reduction in cellular cholesterol level; assay type: functional, cell-based; settings: Caco-2
T2 sequence (whole entry): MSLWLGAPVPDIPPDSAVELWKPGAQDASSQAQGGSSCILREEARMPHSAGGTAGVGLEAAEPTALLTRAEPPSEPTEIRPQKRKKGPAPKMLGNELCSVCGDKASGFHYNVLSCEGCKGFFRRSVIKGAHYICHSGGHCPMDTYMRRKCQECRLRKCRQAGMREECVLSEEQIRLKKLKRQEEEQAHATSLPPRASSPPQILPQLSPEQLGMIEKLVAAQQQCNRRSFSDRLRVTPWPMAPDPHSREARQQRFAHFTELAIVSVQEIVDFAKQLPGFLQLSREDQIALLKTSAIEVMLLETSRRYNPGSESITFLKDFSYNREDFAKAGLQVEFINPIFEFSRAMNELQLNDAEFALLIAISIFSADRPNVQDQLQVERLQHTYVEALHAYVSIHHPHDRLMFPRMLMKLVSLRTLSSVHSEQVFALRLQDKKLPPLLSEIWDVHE

[4] = target: T2, Oxysterols receptor LXR-alpha (Homo sapiens); assay: Agonist activity at LXR-alpha in human HepG2 cells assessed as reduction in cellular cholesterol level; assay type: functional, cell-based
[5] = target: T2, Oxysterols receptor LXR-alpha (Homo sapiens); assay: Agonist activity at LXR-alpha in human THP1 cells assessed as increase cholesterol efflux to HDL by FACs analysis; assay type: functional, cell-based; settings: THP-1
[6] = target: T3, Oxysterols receptor LXR-alpha (Mus musculus) (UniProt Q9Z0Y9); assay: Agonist activity at LXR-alpha in mouse RAW264.7 cells assessed as reduction in cellular cholesterol level; assay type: functional, cell-based
T3 sequence (whole entry): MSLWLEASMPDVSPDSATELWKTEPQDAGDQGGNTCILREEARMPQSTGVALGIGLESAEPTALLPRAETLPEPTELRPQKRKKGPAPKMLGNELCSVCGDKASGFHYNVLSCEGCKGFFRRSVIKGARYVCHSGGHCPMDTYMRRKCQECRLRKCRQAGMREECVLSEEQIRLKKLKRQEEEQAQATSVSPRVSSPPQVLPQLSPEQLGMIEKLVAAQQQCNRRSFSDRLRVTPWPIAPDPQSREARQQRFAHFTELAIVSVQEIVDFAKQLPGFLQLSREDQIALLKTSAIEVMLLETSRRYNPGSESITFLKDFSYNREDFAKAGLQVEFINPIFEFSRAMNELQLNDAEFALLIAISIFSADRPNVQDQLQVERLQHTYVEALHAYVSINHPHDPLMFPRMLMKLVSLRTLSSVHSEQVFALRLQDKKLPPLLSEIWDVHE

[7] = target: T4, Oxysterols receptor LXR-beta (Homo sapiens) (UniProt P55055); assay: Binding affinity to human LXR-beta LBD by SPR-Biacore assay
T4 sequence (whole entry): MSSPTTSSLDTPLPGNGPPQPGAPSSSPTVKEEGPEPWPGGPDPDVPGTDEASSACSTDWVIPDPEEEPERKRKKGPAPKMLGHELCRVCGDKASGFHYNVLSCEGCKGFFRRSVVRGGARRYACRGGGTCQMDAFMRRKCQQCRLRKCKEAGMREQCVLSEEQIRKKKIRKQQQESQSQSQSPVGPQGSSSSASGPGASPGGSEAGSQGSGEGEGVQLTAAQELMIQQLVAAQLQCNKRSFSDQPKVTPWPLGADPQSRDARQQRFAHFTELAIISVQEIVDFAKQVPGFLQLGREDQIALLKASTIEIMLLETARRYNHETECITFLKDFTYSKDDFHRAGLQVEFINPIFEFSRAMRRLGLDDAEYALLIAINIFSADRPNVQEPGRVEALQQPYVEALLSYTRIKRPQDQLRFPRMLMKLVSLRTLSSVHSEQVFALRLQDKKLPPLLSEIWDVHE

[8] = target: T2, Oxysterols receptor LXR-alpha (Homo sapiens); assay: Binding affinity to human LXR-alpha LBD by SPR-Biacore assay
[9] = target: T4, Oxysterols receptor LXR-beta (Homo sapiens); assay: (§1) Agonist activity at human LXR-beta assessed as increase in recruitment of Trap 220/D22 coactivator peptide by TR-FRET assay; assay type: functional
[10] = target: T5, Oxysterols receptor LXR-beta (Homo sapiens, UniProt P55055); assay: as §1; assay type: functional
T5 sequence (P55055 whole entry): T4 sequence (whole entry)

[11] = target: T2, Oxysterols receptor LXR-alpha (Homo sapiens); assay: (§2) Agonist activity at human LXR-alpha assessed as increase in recruitment of Trap 220/Drip2 coactivator peptide by TR-FRET assay; assay type: functional
[12] = target: T6, Oxysterols receptor LXR-alpha (Homo sapiens, UniProt Q13133); assay: as §2; assay type: functional
T6 sequence (Q13133 whole entry): T2 sequence (whole entry)

[13] = target: T7, Peroxisome proliferator-activated receptor gamma (Homo sapiens) (UniProt P37231); assay: Transactivation of PPAR-gamma transfected in HEK293 cells at 50 to 100 uM after 24 hrs by luciferase reporter gene assay; assay type: cell-based
T7 sequence (whole entry): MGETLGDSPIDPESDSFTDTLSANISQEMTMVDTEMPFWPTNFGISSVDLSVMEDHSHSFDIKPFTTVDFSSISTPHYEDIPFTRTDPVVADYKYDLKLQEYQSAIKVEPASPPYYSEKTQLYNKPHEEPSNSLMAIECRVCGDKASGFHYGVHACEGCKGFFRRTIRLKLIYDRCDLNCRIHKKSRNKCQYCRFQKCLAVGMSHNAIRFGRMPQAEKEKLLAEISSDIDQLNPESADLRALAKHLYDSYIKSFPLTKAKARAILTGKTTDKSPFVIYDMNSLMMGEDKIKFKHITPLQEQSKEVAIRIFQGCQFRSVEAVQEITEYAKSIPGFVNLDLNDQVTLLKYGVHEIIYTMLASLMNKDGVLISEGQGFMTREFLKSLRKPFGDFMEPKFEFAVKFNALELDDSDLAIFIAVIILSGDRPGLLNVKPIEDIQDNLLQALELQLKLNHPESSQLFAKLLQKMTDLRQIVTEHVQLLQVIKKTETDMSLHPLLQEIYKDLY

[14] = target: T8, Peroxisome proliferator-activated receptor alpha (Homo sapiens) (UniProt Q07869); assay: Transactivation of PPAR-alpha transfected in HEK293 cells at 50 to 100 uM after 24 hrs by luciferase reporter gene assay; assay type: cell-based
T8 sequence (whole entry): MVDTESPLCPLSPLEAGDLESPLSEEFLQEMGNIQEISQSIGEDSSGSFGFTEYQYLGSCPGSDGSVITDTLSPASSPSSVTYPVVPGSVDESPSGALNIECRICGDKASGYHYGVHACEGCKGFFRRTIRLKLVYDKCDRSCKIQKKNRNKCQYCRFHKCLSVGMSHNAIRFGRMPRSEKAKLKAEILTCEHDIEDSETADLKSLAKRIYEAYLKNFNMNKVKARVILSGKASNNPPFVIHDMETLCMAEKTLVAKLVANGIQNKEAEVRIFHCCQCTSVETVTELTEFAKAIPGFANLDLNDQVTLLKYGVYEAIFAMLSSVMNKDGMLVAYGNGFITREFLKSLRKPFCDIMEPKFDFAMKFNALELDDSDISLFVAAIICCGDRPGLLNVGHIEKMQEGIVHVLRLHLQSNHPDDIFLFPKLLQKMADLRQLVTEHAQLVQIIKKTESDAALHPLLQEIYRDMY

[15] = target: T5, Oxysterols receptor LXR-beta; assay: Transactivation of human LXR-beta transfected in HEK293 cells after 24 hrs by luciferase reporter gene assay; assay type: cell-based
[16] = target: T6, Oxysterols receptor LXR-alpha; assay: Transactivation of human LXR-alpha transfected in HEK293 cells after 24 hrs by luciferase reporter gene assay; assay type: cell-based
[17] = target: T4, Oxysterols receptor LXR-beta (Homo sapiens); assay: Transactivation of human LXR-beta transfected in HEK293 cells at 100 uM after 24 hrs by luciferase reporter gene assay; assay type: cell-based
[18] = target: T2, Oxysterols receptor LXR-alpha (Homo sapiens); assay: Transactivation of human LXR-alpha transfected in HEK293 cells at 100 uM after 24 hrs by luciferase reporter gene assay; assay type: cell-based
HepG2 = assay: Cytotoxicity against human HepG2 cells after 48 hrs by MTT assay; assay type: cell-based; settings: hepg2, 48 h
RAW264.7 = assay: Cytotoxicity against mouse RAW264.7 after 48 hrs by MTT assay; assay type: cell-based; settings: raw264.7, 48 h
THP-1 = assay: Cytotoxicity against human THP1 cells after 48 hrs by MTT assay; assay type: cell-based; settings: thp-1, 48 h
[19] = target: T1, Liver X receptor (Homo sapiens); assay: Agonist activity at LXR in human THP1 cells assessed as induction of ABCA1 gene expression at 100 uM after 48 hrs by immunoblot analysis relative to control; assay type: functional, cell-based; settings: THP-1

Activity [1]: Dose-dependent effect
Activity [2]: Dose-dependent effect
Activity [3]: Dose-dependent effect
Activity [4]: Dose-dependent effect
Activity [5]: Dose-dependent effect
Activity [6]: Dose-dependent effect
Activity [7]: Active
Activity [8]: Active
Activity [9]: Dose-dependent effect
EC50 [10]: 3.04 µM
Activity [11]: Dose-dependent effect
EC50 [12]: 1.5 µM
Activity [13]: inactive
Activity [14]: inactive
EC50 [15]: 37.8 µM
EC50 [16]: 80.8 µM
Activity [17]: 55%
Activity [18]: 64%
Activity [19]: Active
SMILES: CCOC(=O)c1c(O)cc(O)cc1O
Activity (HepG2): Non-toxic
Activity (RAW264.7): Non-toxic
Activity (THP-1): Non-toxic
